Measured values from the NIST ThermoML archive (doi:10.1016/j.jct.2014.05.016).

Experiment: xn = mol fraction of the nth substance listed
Conditions: 100 kPa, Liquid; for mass density: Vibrating tube method; for viscosity: Concentric cylinders viscometry

CCCC[n+]1ccccc1.F[B-](F)(F)F [1-butylpyridinium tetrafluoroborate] + CCCCn1cc[n+](C)c1.F[B-](F)(F)F
Conditions | mass density [kg/m3] | viscosity [mPa·s]
318.15 K, x2 = 0 | 1199.4 | –
318.15 K, x2 = 0.1007 | 1198.1 | –
318.15 K, x2 = 0.2004 | 1197 | –
318.15 K, x2 = 0.3001 | 1195.7 | –
318.15 K, x2 = 0.4004 | 1194.4 | –
318.15 K, x2 = 0.5009 | 1193.1 | –
318.15 K, x2 = 0.6004 | 1191.8 | –
318.15 K, x2 = 0.7013 | 1190.6 | –
318.15 K, x2 = 0.8007 | 1189.1 | –
318.15 K, x2 = 0.8987 | 1187.8 | –
323.15 K, x2 = 0 | 1196 | 47.29
323.15 K, x2 = 0.1007 | 1194.7 | –
323.15 K, x2 = 0.1009 | – | 46.21
323.15 K, x2 = 0.2004 | 1193.5 | –
323.15 K, x2 = 0.2005 | – | 44.95
323.15 K, x2 = 0.3001 | 1192.3 | –
323.15 K, x2 = 0.3003 | – | 43.7
323.15 K, x2 = 0.4001 | – | 42.46
323.15 K, x2 = 0.4004 | 1190.9 | –
323.15 K, x2 = 0.4999 | – | 41.32
323.15 K, x2 = 0.5009 | 1189.6 | –
323.15 K, x2 = 0.6004 | 1188.3 | –
323.15 K, x2 = 0.6007 | – | 40.18
323.15 K, x2 = 0.7004 | – | 39.01
323.15 K, x2 = 0.7013 | 1187 | –
323.15 K, x2 = 0.8001 | – | 37.96
323.15 K, x2 = 0.8007 | 1185.6 | –
323.15 K, x2 = 0.8987 | 1184.3 | –
323.15 K, x2 = 0.8998 | – | 36.87
328.15 K, x2 = 0 | 1192.6 | 38.71
328.15 K, x2 = 0.1007 | 1191.3 | –
328.15 K, x2 = 0.1009 | – | 37.89
328.15 K, x2 = 0.2004 | 1190.1 | –
328.15 K, x2 = 0.2005 | – | 36.94
328.15 K, x2 = 0.3001 | 1188.8 | –
328.15 K, x2 = 0.3003 | – | 36
328.15 K, x2 = 0.4001 | – | 35.04
328.15 K, x2 = 0.4004 | 1187.5 | –
328.15 K, x2 = 0.4999 | – | 34.16
328.15 K, x2 = 0.5009 | 1186.2 | –
328.15 K, x2 = 0.6004 | 1184.9 | –
328.15 K, x2 = 0.6007 | – | 33.29
328.15 K, x2 = 0.7004 | – | 32.42
328.15 K, x2 = 0.7013 | 1183.5 | –
328.15 K, x2 = 0.8001 | – | 31.6
328.15 K, x2 = 0.8007 | 1182.1 | –
328.15 K, x2 = 0.8987 | 1180.8 | –
328.15 K, x2 = 0.8998 | – | 30.76
333.15 K, x2 = 0 | 1189.2 | 32.12
333.15 K, x2 = 0.1007 | 1188 | –
333.15 K, x2 = 0.1009 | – | 31.48
333.15 K, x2 = 0.2004 | 1186.7 | –
333.15 K, x2 = 0.2005 | – | 30.81
333.15 K, x2 = 0.3001 | 1185.4 | –
333.15 K, x2 = 0.3003 | – | 30.05
333.15 K, x2 = 0.4001 | – | 29.3
333.15 K, x2 = 0.4004 | 1184 | –
333.15 K, x2 = 0.4999 | – | 28.66
333.15 K, x2 = 0.5009 | 1182.7 | –
333.15 K, x2 = 0.6004 | 1181.4 | –
333.15 K, x2 = 0.6007 | – | 27.94
333.15 K, x2 = 0.7004 | – | 27.27
333.15 K, x2 = 0.7013 | 1180 | –
333.15 K, x2 = 0.8001 | – | 26.68
333.15 K, x2 = 0.8007 | 1178.6 | –
333.15 K, x2 = 0.8987 | 1177.3 | –
333.15 K, x2 = 0.8998 | – | 26.05
338.15 K, x2 = 0 | 1185.8 | 26.98
338.15 K, x2 = 0.1007 | 1184.6 | –
338.15 K, x2 = 0.1009 | – | 26.47
338.15 K, x2 = 0.2004 | 1183.3 | –
338.15 K, x2 = 0.2005 | – | 25.93
338.15 K, x2 = 0.3001 | 1182 | –
338.15 K, x2 = 0.3003 | – | 25.37
338.15 K, x2 = 0.4001 | – | 24.83
338.15 K, x2 = 0.4004 | 1180.6 | –
338.15 K, x2 = 0.4999 | – | 24.25
338.15 K, x2 = 0.5009 | 1179.3 | –
338.15 K, x2 = 0.6004 | 1178 | –
338.15 K, x2 = 0.6007 | – | 23.7
338.15 K, x2 = 0.7004 | – | 23.18
338.15 K, x2 = 0.7013 | 1176.6 | –
338.15 K, x2 = 0.8001 | – | 22.68
338.15 K, x2 = 0.8007 | 1175.2 | –
338.15 K, x2 = 0.8987 | 1173.9 | –
338.15 K, x2 = 0.8998 | – | 22.23
343.15 K, x2 = 0 | 1182.5 | 22.97
343.15 K, x2 = 0.1007 | 1181.2 | –
343.15 K, x2 = 0.1009 | – | 22.54
343.15 K, x2 = 0.2004 | 1179.9 | –
343.15 K, x2 = 0.2005 | – | 22.07
343.15 K, x2 = 0.3001 | 1178.6 | –
343.15 K, x2 = 0.3003 | – | 21.64
343.15 K, x2 = 0.4001 | – | 21.16
343.15 K, x2 = 0.4004 | 1177.3 | –
343.15 K, x2 = 0.4999 | – | 20.75
343.15 K, x2 = 0.5009 | 1175.9 | –
343.15 K, x2 = 0.6004 | 1174.5 | –
343.15 K, x2 = 0.6007 | – | 20.32
343.15 K, x2 = 0.7004 | – | 19.9
343.15 K, x2 = 0.7013 | 1173.2 | –
343.15 K, x2 = 0.8001 | – | 19.49
343.15 K, x2 = 0.8007 | 1171.8 | –
343.15 K, x2 = 0.8987 | 1170.4 | –
343.15 K, x2 = 0.8998 | – | 19.09
